Data as given in patent US11911393B2, “Non-catalytic substrate-selective p38alpha-specific MAPK inhibitors with endothelial-stabilizing and anti-inflammatory activity, and methods of use thereof” (University of Maryland, Baltimore, priority 2016, dated 2024).
“Also recorded” adds a separate entry of the source. Where two headings read alike, the source gives them in different places.

Assays:
[1] = test system: patients with Crohn's disease; conditions: cited from earlier work
[2] = biological target: T1, unphosphorylated recombinant human p38α (Homo sapiens, UniProt Q16539); assay: Differential scanning fluorimetry (DSF), binding to p38α; conditions: for stabilization of p38α in DSF (binding), in words: DSF melting temperature, concentration series
T1 construct: made in house; host or cells: E. coli BL21

[3] = test system: IL-8-directed neutrophil TEM through HMVECLs; assay: Neutrophil transendothelial migration (TEM) assay; assay type: cell-based, human; conditions: HMVECLs preincubated at 39.5° C. for 6 h
HMVECL monolayers = assay: Endothelial permeability assay (10 kDa dextran flux); assay type: cell-based, human; conditions: for reduction of TNFα/hyperthermia-induced permeability increase: HMVECL, 10 kDa dextran, TNFα and 39.5° C. for 6 h
Description: Endothelial permeability assay: Permeability of HMVECL monolayers was assessed by measuring transendothelial flux of 10 kDa dextran conjugated to Cascade blue fluorescent dye for 30 min at 37° C. in Matrigel-coated 3 μm pore size Transwell plates.

ERK2 = ERK2 (Homo sapiens, UniProt P28482); assay: DSF, binding to ERK2; conditions: for ΔTm at 100 µM / ERK2 ΔTm (° C.) @100 μM: change in melting temperature relative to DMSO control in DSF assay; for stabilization of ERK2 in DSF (binding), in words: test compounds at 10-100 μM
HMVECLs = assay: Cytotoxicity assay (MTS, LDH release); assay type: cell-based, human; conditions: 100 μM for 48 h
Description: Cytotoxicity of HMVECL exposed to 10-100 μM of each compound is analyzed by MTS assay (Promega), LDH release (Promega), and immunoblotting for activated caspase-3 (Cell Signaling).
Cytotoxicity assay: Cytotoxicity was monitored in parallel HMVEC-L monolayers established in 96-well culture plates using a colorimetric assay that measured reduction of 3-(4,5-dimethylthiazol-2-yl)-5-(3-carboxymethoxyphenyl)-2-(4-sulfophenyl)-2H-tetrazolium (MTS) to a formazan dye (CellTiter 96™; Promega; Madison, WI) according to the manufacturer's protocol and quantifying product formation by measuring absorption at 490 nm.

[4] = test system: LPS/hyperthermia-induced ALI in CD1 mice; assay: Mouse i.t. LPS/FRH-induced acute lung injury model; conditions: for mice that died within 24 h: single i.p. injection of 100-1000 μg UM101, 1000 μg UM60 or 1000 μg SB203580, 30 min before i.t. 50 μg LPS and hyperthermia; for reduction of lavage neutrophil content vs. DMSO-treated controls: mouse LPS/hyperthermia ALI, 24 h
mutated p38α = biological target: T2, mutated p38α (Homo sapiens, UniProt Q16539, H107T/K165R/L108F/R49K); assay: STD-NMR, binding to mutated p38α; conditions: 200 μM UM101, 5 μM p38 protein
T2 construct: made in house; host or cells: E. coli BL21
Description: (§1) Spectra were recorded on an Agilent DD2 500-MHz spectrometer equipped with a 5-mm inverse HFCN probe head at 300 K. During each transient, the protein was saturated with a series of 58 […]-shaped pulses (50 ms, 1 ms delay between pulses) using the vendor-supplied STD-ES pulse sequence, for a total saturation time of 3 seconds. The on-resonance irradiation of protein was done at 0.5 ppm and off-resonance irradiation at 30 ppm. The vendor-supplied WATERGATE pulse sequence was used to suppress the water signal in the STD spectrum. The on-resonance and off-resonance pulse sequences were subtracted internally. A total of 16,384 transients were collected for each STD experiment with a 1 second delay between acquisitions, 6000 Hz spectral width, and 1.3 second acquisition time.

[5] = test system: p38-dependent phosphorylation of MK2 and Stat-1 in HeLa cells; assay: Inhibition of substrate phosphorylation (immunoblot); assay type: cell-based, human; conditions: 10 μM SB203580 or 50 μM UM101 for 30 min
Text: Cell extracts prepared in RIPA buffer containing protease and phosphatase inhibitors were resolved by SDS-PAGE, transferred to PVDF membrane, blocked with 5% nonfat dry milk, probed with primary antibodies against phosphorylated MK2 and Stat-1, and total p38α as a loading control. Bands were detected using secondary antibodies conjugated to infrared fluorophores and infrared fluorescence imaging (Odyssey; LICOR).

p38β [6] = biological target: T3, p38β (Homo sapiens, UniProt Q15759); assay: DSF, binding to p38β; conditions: DSF melting temperature, concentration series
T3 construct: HA (N); made in house; host or cells: E. coli BL21

p38β [7] = biological target: T3, p38β; assay: STD-NMR, binding to p38β; conditions: 200 μM UM101, 5 μM p38 protein
Description: as §1

[8] = test system: LPS-induced cytokine expression in PMA-differentiated THP1 cells; assay: LPS-induced cytokine expression, PCR-based cytokine array; assay type: cell-based, human; conditions: 25 μM SB203580 or 10, 25, or 100 μM UM101
p38α = biological target: T4, p38α (Homo sapiens, UniProt Q16539); assay: STD-NMR, binding to p38α; conditions: 200 μM UM101, 5 μM p38 protein
T4 construct: made in house; host or cells: E. coli BL21
Description: as §1

[9] = biological target: T5, p38α mutant (R49K/HL107-8TF/K165R) (Homo sapiens, UniProt Q16539, H107T/K165R/L108F/R49K); assay: DSF, binding to target-disrupted p38α mutant; conditions: compared with wild-type p38α
T5 construct: made in house; host or cells: E. coli BL21

rheumatoid arthritis = conditions: two trials in rheumatoid arthritis; cited from earlier work
[10] = test system: patients at-risk for ARDS; conditions: early phase IIa trial, cited from earlier work
[11] = test system: patients with hypercholesterolemia; conditions: cited from earlier work
[12] = 100 μM, change in melting temperature relative to DMSO control in DSF assay, read-out: p38α ΔTm (° C.) @100 μM
[13] = added at 100 μM, DSF, read-out: increase in melting temperature of p38α
[14] = 100 μM, change in melting temperature relative to DMSO control in DSF assay

T3 sequence (Q15759 whole entry): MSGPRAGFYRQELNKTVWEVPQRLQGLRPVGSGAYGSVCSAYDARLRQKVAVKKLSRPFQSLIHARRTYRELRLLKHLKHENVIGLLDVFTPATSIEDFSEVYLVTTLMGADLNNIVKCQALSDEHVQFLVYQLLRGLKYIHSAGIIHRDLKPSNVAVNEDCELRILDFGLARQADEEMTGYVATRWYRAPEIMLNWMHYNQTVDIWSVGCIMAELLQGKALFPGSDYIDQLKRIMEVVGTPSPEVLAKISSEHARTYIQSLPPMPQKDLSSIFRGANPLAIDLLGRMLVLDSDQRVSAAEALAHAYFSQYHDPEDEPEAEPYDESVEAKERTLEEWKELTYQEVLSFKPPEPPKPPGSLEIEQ
Chain of ERK2 (P28482 whole entry, species assumed): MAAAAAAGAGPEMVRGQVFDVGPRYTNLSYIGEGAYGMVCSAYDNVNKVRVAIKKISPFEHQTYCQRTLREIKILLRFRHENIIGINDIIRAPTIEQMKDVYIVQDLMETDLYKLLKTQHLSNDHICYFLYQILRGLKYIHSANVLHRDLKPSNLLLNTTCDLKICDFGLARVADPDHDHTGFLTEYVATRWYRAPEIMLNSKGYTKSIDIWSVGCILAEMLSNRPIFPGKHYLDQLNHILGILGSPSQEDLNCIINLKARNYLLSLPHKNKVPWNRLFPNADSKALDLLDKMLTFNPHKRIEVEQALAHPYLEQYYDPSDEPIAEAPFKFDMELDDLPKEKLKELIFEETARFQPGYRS
T1 sequence (Q16539 whole entry): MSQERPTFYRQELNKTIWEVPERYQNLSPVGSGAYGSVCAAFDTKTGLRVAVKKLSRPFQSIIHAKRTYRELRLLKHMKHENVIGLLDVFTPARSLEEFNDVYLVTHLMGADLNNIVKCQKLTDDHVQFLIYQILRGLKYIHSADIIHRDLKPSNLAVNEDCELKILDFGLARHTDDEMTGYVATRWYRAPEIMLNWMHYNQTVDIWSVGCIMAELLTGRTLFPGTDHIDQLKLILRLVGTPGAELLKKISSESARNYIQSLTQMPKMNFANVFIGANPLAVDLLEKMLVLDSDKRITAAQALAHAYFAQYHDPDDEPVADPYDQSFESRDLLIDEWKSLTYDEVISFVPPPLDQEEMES
T5 sequence (Q16539 whole entry R49K/H107T/L108F/K165R): as the sequence (Q16539 whole entry) above, with R49K, H107T, L108F, K165R counted along it
T4 sequence (Q16539 whole entry): as the sequence (Q16539 whole entry) above
T2 sequence (Q16539 whole entry R49K/H107T/L108F/K165R): as the sequence (Q16539 whole entry) above, with R49K, H107T, L108F, K165R counted along it

## Cc1ccc(-n2nc(C(C)(C)C)cc2NC(=O)Nc2ccc(OCCN3CCOCC3)c3ccccc23)cc1 [BIRB 796]
[1]
  clinical effect in Crohn's disease: no clinical effect
  serum CRP levels: transiently reduced

## O=C1c2cc(S(=O)(=O)NCCO)ccc2-c2ccc(S(=O)(=O)NCCO)cc21 [UM60, N2,N7-di(2-hydroxyethyl)-9-oxo-9H-2,7-fluorenedisulfonamide]
[2]; [12]
  ΔTm at 100 µM: 0.735 °C
[2]
  stabilization of p38α in DSF (binding), in words: stabilized p38α
[2]; [13]
  ΔTm at 100 µM: ~0.7 °C
[3]; 10 μM
  reduction of hyperthermia-augmented neutrophil TEM: 18%
[3]; 25 μM
  reduction of hyperthermia-augmented neutrophil TEM: 89%
[3]; 50 μM
  reduction of hyperthermia-augmented neutrophil TEM: less than baseline levels
HMVECL monolayers; 10 μM
  reduction of TNFα/hyperthermia-induced permeability increase: no effect
HMVECL monolayers; 25 μM
  reduction of TNFα/hyperthermia-induced permeability increase: no effect
HMVECL monolayers; 100 μM
  reduction of TNFα/hyperthermia-induced permeability increase: 71%
ERK2
  ΔTm at 100 µM: 0.195 °C
  stabilization of ERK2 in DSF (binding), in words: not ERK2
HMVECLs
  toxicity in LDH release and MTS assays: Neither compound was toxic
[4]
  mice that died within 24 h: Four of six

## O=C(Nc1ccc(CN2CCS(=O)(=O)CC2)cc1)c1ccc(Cl)cc1 [UM101, 4-chloro-N-{4-[(1,1-dioxo-1 lambda˜6˜,4-thiazinan-4-yl)methyl]phenyl}benzamide]
Mutated p38α
  interaction with mutated p38α in STD-NMR, in words: much weaker
[5]
  anisomycin-stimulated phosphorylation of MK2, in words: partial inhibition of MK2 phosphorylation
  anisomycin-stimulated phosphorylation of Stat-1, in words: reduced
[5]; listed as UM1010
  anisomycin-stimulated phosphorylation of MK2, in words: reduced
[2]; [12]
  ΔTm at 100 µM: 0.667 °C
[2]
  stabilization of p38α in DSF (binding), in words: concentration-dependent increase in melting temperature of p38α; also recorded: only stabilized p38α
[2]; [13]
  ΔTm at 100 µM: ~0.7 °C
p38β [6]
  stabilization of p38β in DSF (binding), in words: not p38β; also recorded: only stabilized p38α
p38β [7]
  interaction with p38β in STD-NMR, in words: much weaker
[3]; 10 μM
  reduction of hyperthermia-augmented neutrophil TEM: 95%
[3]; 25 μM
  reduction of hyperthermia-augmented neutrophil TEM: less than baseline levels
[3]; 50 μM
  reduction of hyperthermia-augmented neutrophil TEM: less than baseline levels
HMVECL monolayers; 10 μM
  reduction of TNFα/hyperthermia-induced permeability increase: 74%
HMVECL monolayers; 25 μM
  reduction of TNFα/hyperthermia-induced permeability increase: 89%
HMVECL monolayers; 100 μM
  reduction of TNFα/hyperthermia-induced permeability increase: > 100%
HMVECL monolayers; HMVECL barrier assays (FIG. 2a, 2b)
  endothelial barrier stabilization compared with SB203580, in words: more effectively stabilized endothelial barriers than SB203580
[8]
  LPS-stimulated genes of the array (16) whose expression was inhibited, in words: inhibited expression of all SB203580-inhibited genes except TNFSF9
p38α
  interaction with p38α in STD-NMR, in words: confirmed specific UM101 binding to p38α; also recorded: protons in both aromatic rings of UM101 interact with p38α
ERK2
  ΔTm at 100 µM: 0.0175 °C
  stabilization of ERK2 in DSF (binding), in words: not ERK2
[9]
  binding to p38α mutant with four of ten target pocket amino acids substituted, in words: abrogated UM101 binding; also recorded: no UM101-binding
HMVECLs
  toxicity in LDH release and MTS assays: Neither compound was toxic
[4]; 100 μg i.p.
  reduction of lavage neutrophil content vs. DMSO-treated controls: 44.4%
[4]; 300 μg i.p.
  reduction of lavage neutrophil content vs. DMSO-treated controls: 49.5%
[4]; 500 μg i.p.
  reduction of lavage neutrophil content vs. DMSO-treated controls: 55.3%
[4]; 1000 μg i.p.
  reduction of lavage neutrophil content vs. DMSO-treated controls: 54%
[4]; mouse LPS/FRH-induced ALI
  tolerability and potency compared with SB203580 in experimental ALI, in words: well tolerated and more potent than SB203580 in mitigating experimental ALI; also recorded: more potent than SB203580 in reducing neutrophil and protein accumulation in BAL
[4]
  mice that died within 24 h: All sixteen UM101-pretreated mice survived

## NC(=O)c1ccc(N(C(N)=O)c2c(F)cccc2F)nc1-c1ccc(F)cc1F [VX-702]
Rheumatoid arthritis
  proportion of treated subjects with ACR20 symptom score vs. placebo: small increases

## COc1ccccc1N1CCN(CCCCNS(=O)(=O)c2ccc(C)cc2)CC1 [compound 2]
[2]; [14]
  p38α ΔTm (° C.) @100 μM: −0.05 °C
ERK2
  ERK2 ΔTm (° C.) @100 μM: 0.412 °C

## O=C1NCCN1CCNS(=O)(=O)c1ccc(S(=O)(=O)c2ccccc2)s1 [compound 3]
[2]; [14]
  p38α ΔTm (° C.) @100 μM: 0.282 °C
[2]
  stabilization of p38α in DSF (binding), in words: concentration-dependent stabilization of p38α
ERK2
  ERK2 ΔTm (° C.) @100 μM: 0.337 °C
  stabilization of ERK2 in DSF (binding), in words: also stabilized ERK2

## CN1CCN(CC(=O)Nc2ccc(S(N)(=O)=O)cc2)CC1 [compound 4]
[2]; [14]
  p38α ΔTm (° C.) @100 μM: 0.065 °C
ERK2
  ERK2 ΔTm (° C.) @100 μM: 0.452 °C

## CN1CCN(c2ccc(CNS(=O)(=O)c3ccc(-c4ccon4)s3)cc2)CC1 [compound 5]
[2]; [14]
  p38α ΔTm (° C.) @100 μM: 0.808 °C
[2]
  stabilization of p38α in DSF (binding), in words: concentration-dependent stabilization of p38α
ERK2
  ERK2 ΔTm (° C.) @100 μM: 0.628 °C
  stabilization of ERK2 in DSF (binding), in words: also stabilized ERK2

## Cc1nc(-c2ccc(S(=O)(=O)NCCCN)s2)cs1 [compound 8]
[2]; [14]
  p38α ΔTm (° C.) @100 μM: −0.07 °C
ERK2
  ERK2 ΔTm (° C.) @100 μM: 0.531 °C

## CS(=O)(=O)N1CCN(c2ncccc2C(F)(F)F)CC1 [compound 13]
[2]; [14]
  p38α ΔTm (° C.) @100 μM: 0.005 °C
ERK2
  ERK2 ΔTm (° C.) @100 μM: 0.390 °C

## O=S(=O)(c1ccccc1)N(Cc1ccccn1)Cc1ccccn1 [compound 16]
[2]; [14]
  p38α ΔTm (° C.) @100 μM: −0.052 °C
ERK2
  ERK2 ΔTm (° C.) @100 μM: 0.444 °C

## O=S(=O)(NCc1csc(-c2cccs2)n1)c1ccc2c(c1)CCO2 [compound 23]
[2]; [14]
  p38α ΔTm (° C.) @100 μM: −0.488 °C
ERK2
  ERK2 ΔTm (° C.) @100 μM: −0.598 °C

## O=S(=O)(CCS(=O)(=O)c1ccccn1)c1ccc(Cl)cc1 [compound 69]
[2]; [14]
  p38α ΔTm (° C.) @100 μM: −0.233 °C
ERK2
  ERK2 ΔTm (° C.) @100 μM: 0.361 °C

## O=C(CSc1cccs1)NCCSCc1ccco1 [compound 146]
[2]; [14]
  p38α ΔTm (° C.) @100 μM: −1.084 °C
ERK2
  ERK2 ΔTm (° C.) @100 μM: −1.632 °C

## Cc1nc(S(=O)(=O)NCc2cc(F)cc3c2OCOC3)cn1C [compound 150]
[2]; [14]
  p38α ΔTm (° C.) @100 μM: −0.171 °C
ERK2
  ERK2 ΔTm (° C.) @100 μM: 0.133 °C

## Cc1cc(F)ccc1-c1nc(NC(CO)CO)nc2c1ccc(=O)n2-c1c(F)cccc1F [dilmapimod]
[10]; patients at-risk for ARDS
  serum C-reactive protein (CRP) levels: modestly reduced
[10]
  safety in patients at-risk for ARDS: safe at the doses administered

## Cc1c(F)cc(C(=O)NC2CC2)cc1-c1ccc(C(=O)NCC(C)(C)C)cn1 [losmapimod]
[11]
  serum CRP: reduced
  vascular relaxation: improved
